Experimental data taken from patent US10294457B2, “Maturation of hepatocyte-like cells derived from human pluripotent stem cells” (Takara Bio Europe AB, priority 2012, dated 2019).

Experiments:
hESC-derived hepatocytes [1] = assay: CYP activity assay, early 5-aza-2-deoxycytidine plus late RA, Kenpaullone and matrix overlay (Example 8); format: cell-based, human; conditions: additional effect of treatment with the DNA demethylation agent on day 2-3
Experimental: (§1) Following the basic protocols C (hESC-derived hepatocytes) or D (hiPSC-derived hepatocytes), differentiating hES and hiPS cells in the pre-endodermal phase were treated with 10 nM of the DNA demethylating agent 5-aza-2-deoxycytidine for 24 hr on day 2 to 3 of the protocol.
(§2) Later in the protocol, hPS cell derived hepatic progenitor cells and hepatocyte-like cells cultured on a Fibronectin-based coating were treated with continuous/long term treatment with 0.2 μM 9cis-RA and 0.5 μM Kenpaullone starting on day 14 of the protocol (i.e. on day 1 of the differentiation and maturation phase) and received thin Fibronectin-Collagen I-overlays on day 14 and 16 of the protocol (i.e. on day 1 and 3 of the differentiation and maturation phase) and is refreshed thereafter once a week on day 23, 30, 37 and so on (i.e. on day 9, 16, 23 and so on of the differentiation and maturation phase).
(§3) For analysing functional expression of CYP enzymes on day 36 (i.e. on day 22 of the maturation step; FIG. 10), the cell cultures are subjected to a CYP activity assay according to the following protocol: Cells are washed twice with warm Williams medium E w/o phenol red (+0.1% PEST). […]

[2] = test system: hiPSC-derived hepatocytes; assay: as above; format: cell-based, human; conditions: additional effect of treatment with the DNA demethylation agent on day 2-3
Experimental: as §1, §2, §3

RAR = conditions: Allenby et al.; Idres et al.; cited from earlier work
RXR = conditions: cited from earlier work; for affinity of binding to RXR: compared with 9-cis-retinoic acid (Heyman et al.)
[3] = test system: hiPSC-derived hepatocytes; assay: CYP activity assay, 9cis-RA or other RXR- and RAR-agonists (Example 15); format: cell-based, human; conditions: instead of 0.2 μM 9cis-RA: 0.5 μM ATRA, 5 μM AM580, 0.2 μM 13cis-RA, 5 μM LGD1069, 5 μM LG100268 or 5 μM SR11237; with Kenpaullone, overlay, early 5-aza-2-deoxycytidine; day 36
Experimental: Some experimental groups were treated with 0.5 μM all trans-retinoic acid (ATRA), 5 μM AM580, 0.2 μM 13cis-RA, 5 μM LGD1069, 5 μM LG100268 or 5 μM SR11237 instead of 0.2 μM 9cis-RA.

[4] = test system: DE derived from hPSC lines P11032, SA181 and P11012; assay: qRT-PCR of stem cell and DE markers in DE, 5-aza-2-deoxycytidine or 5-azacytidine (Example 12); format: cell-based, human; conditions: 10 nM 5-aza-2-deoxycytidine or 1 μM 5-azacytidine on day 2-3; day 7
Experimental: Following the basic protocols C (P11032, SA181) or D (P11012), cells derived from 3 different hPSC lines were treated with either 10 nM 5-aza-2-deoxycytidine or 1 μM 5-azacytidine on day 2-3 during the pre-endodermal phase.

[5] = test system: hepatocyte-like cells derived from hES cells; assay: HNF4α TaqMan assays: HNF4α isoform expression after 9 cis-retinoic acid (Example 3); format: cell-based, human; conditions: for expression of the adult HNF4a1-3 isoforms / expression of the fetal HNF4a4-9 isoforms: 1 or 2 μM
Description: Three different HNF4α-TaqMan assays were used for analysis of HNF4α expression: one assay detecting all 9 HNF4α isoforms, one assay detecting isoforms 1-3 (including the adult isoforms 1 and 2) and one assay detecting isoforms 4-9 (including the fetal isoforms 7 and 8). Isoforms 3, 4, 5, 6 and 9 are not expressed at all in vivo or at very low levels and can therefore be neglected.

hESC-derived hepatocytes [6] = test system: hESC-derived hepatocytes
Experimental: Following the basic protocol A, differentiating hES cell derived hepatic progenitors and hepatocyte-like cells cultured on a Gelatin-based coating were treated with 1 μM 9-cis retinoic acid for 5, 24 or 48 hr exposures on days 21, 22 or 23 of the protocol (i.e. on day 7, 8 or 9 of the differentiation and maturation phase; FIG. 2 A, B, D), repeated 5 hr exposures on days 11, 16, 23, 25 and 30 of the protocol (i.e. on day 4 of the pre-hepatic phase and days 2, 9, 11 and 16 of the differentiation and maturation phase; FIG. 2 C), or long term/continuous treatment from day 14 and onwards (i.e.starting on day 1 of the differentiation and maturation phase; FIG. 2D).
Immediately after end of the RA treatment, the cell cultures are subjected to a CYP activity assay according to the following protocol: Cells are washed twice with warm Williams medium E w/o phenol red (+0.1% PEST). Then CYP activity assay, consisting of warm Williams medium E w/o phenol red (+0.1% PEST), 2 mM L-Glutamine, 25 mM HEPES, 26 μM Phenacetin (model substrate for CYP1A), 9 μM Diclofenac (model substrate for CYP2C9) and 3 μM Midazolam (model substrate for CYP3A), is added to the cells (e.g. 220 μl/24 well) and incubated for 16 hr at 37° C. Then supernatant is collected and centrifuged for 20 min at 10.000 rcf at 4° C. Subsequently, 120 μl of the supernatant is transferred into a 96 well plate which is sealed with a tight seal tape and stored at −20 or −80° C. until LC/MS-analysis of metabolite formation: Acetaminophen (Paracetamol) for CYP1A, OH-Diclofenac for CYP2C9 and OH-Midazolam for CYP3A.

[7] = test system: hES cell derived hepatocyte-like cells; assay: qRT-PCR gene expression after RA treatment, basic protocol A (Example 5)
Experimental: Following the basic protocol A, hES cell derived hepatocyte-like cells cultured on a Gelatin-based coating were treated with 1 μM 9-cis retinoic acid for 5 hr on day 21 of the protocol (i.e. on day 7 of the differentiation and maturation phase) or 24 hr on day 22-23 of the protocol (i.e. on day 8-9 of the differentiation and maturation phase).
Cells were harvested on day 21 or 23 of the protocol (i.e. on day 7 or 9 of the differentiation and maturation phase) and gene expression was analysed using qRT-PCR, normalised to the house-keeping gene CREBBP and the results presented as relative quantification normalised to a calibrator (FIG. 3.)

[8] = 24-, 48 hr-exposure and continuous RA-treatment
[9] = 5 hr RA-exposure, day 23, analysed immediately after the exposure
[10] = continuous/long-term RA treatment versus 5 and 24 hr RA exposures

Nc1ncn([C@H]2C[C@H](O)[C@@H](CO)O2)c(=O)n1 [5-aza-2-deoxycytidine]
CYP2C9 activity (hESC-derived hepatocytes [1]): No additional increase | CYP2C9 activity [2]: No additional increase

CC1=C(/C=C/C(C)=C/C=C\C(C)=C\C(=O)O)C(C)(C)CCC1 [11-cis-retinoic acid]
binding to RAR and RXR (RAR): specifically bind RAR, but not to RXR | affinity of binding to RXR (RXR): much lower affinity

CC1=C(/C=C/C(C)=C/C=C/C(C)=C/C(=O)O)C(C)(C)CCC1 [ATRA, all trans-retinoic acid]
CYP2C9 activity [3]: slightly smaller increase | binding to RAR and RXR (RAR): specifically bind RAR, but not to RXR | affinity of binding to RXR (RXR): much lower affinity

CC1=C(/C=C/C(C)=C/C=C/C(C)=C\C(=O)O)C(C)(C)CCC1 [13cis RA, 13-cis-retinoic acid]
binding to RAR and RXR (RAR): specifically bind RAR, but not to RXR | affinity of binding to RXR (RXR): much lower affinity

CC1=C(\C=C/C(C)=C/C=C/C(C)=C/C(=O)O)C(C)(C)CCC1 [7-cis retinoic acid]
binding to RAR and RXR (RAR): specifically bind RAR, but not to RXR

Nc1ncn([C@@H]2O[C@H](CO)[C@@H](O)[C@H]2O)c(=O)n1 [5-azacytidine]
Oct4 and Nanog mRNA [4]: significantly decreased | mRNA expression of the DE markers Sox17 and Cxcr4 [4]: No significant changes

C=C(c1ccc(C(=O)O)cc1)c1cc2c(cc1C)C(C)(C)CCC2(C)C [LGD1069]
CYP2C9 activity [3]: slightly smaller increase

9-cis-retinoic acid [RA]
expression of the adult HNF4a1-3 isoforms [5, 8]: slightly increase | expression of the fetal HNF4a4-9 isoforms [5, 8]: slightly decrease | expression of the adult HNF4a1-3 isoforms [5, 9]: strongly increase | expression of the fetal HNF4a4-9 isoforms [5, 9]: increase | expression of fetal HNF4α isoform (4-9) ([5]; 5 hr exposure with 1 μM RA, 7 days later): raised over control values | expression of HNF4α isoforms 1-3 ([5]; 5 hr exposure with 1 μM RA, 7 days later, vs untreated control cells): slightly lower | expression of HNF4α isoforms 1-3 ([5]; 5 hr exposure with 1 μM RA, immediately after the exposure): increases | expression of HNF4α isoforms 4-9 ([5]; 5 hr exposure with 1 μM RA, immediately after the exposure, vs control): slightly lower | ratio of HNF4a 1-3 isoforms/4-9 isoforms ([5]; 5 hr exposures): do not increase | ratio of HNF4a 1-3 isoforms/4-9 isoforms ([5]; 24 hr and 48 hr RA-exposure and long term/continuous treatment): increase the 1-3/4-9 ratio of hESC-derived hepatocytes to levels similar as in hp hep | CYP1A activity (hESC-derived hepatocytes [6]): strongest increase | CYP1A, 2C9 and 3A activities (hESC-derived hepatocytes [6]): increased | CYP1A, CYP2C9 and 3A activities (hESC-derived hepatocytes [6]): increase | CYP1A-, 2C9- and 3A-activity (hESC-derived hepatocytes [6]): significant increase | CYP1A-activity (hESC-derived hepatocytes [6]): increase | CYP3A activity (hESC-derived hepatocytes [6]): strongest increase | effect on CYP1A and 2C9 activity (hESC-derived hepatocytes [6]): stronger increasing effect | binding to and activation of RXR and RAR (RXR; Allenby et al., Idres et al.): binds to and activates both RXR and RAR | mRNA expression of the adult hepatic gene CYP3A4 ([7]; 5 hr RA-exposure (1 μM) on day 21, immediately after and 2 and 7 days later (day 23 and 30)): increase | decrease of expression of the fetal hepatic gene CYP3A7 ([7]; 5 hr exposure on day 21, 2 days later on day 23): strongly | decrease of expression of the fetal hepatic gene CYP3A7 ([7]; 5 hr exposure on day 21, immediately after the exposure on day 21): slightly | increase of mRNA expression of the adult hepatic gene PXR ([7]; 5 hr exposure on day 21, measured on day 21): not immediately after the 5 hr exposure | mRNA expression of the adult hepatic gene PXR ([7]; 5 hr exposure on day 21, measured on day 23): increases | mRNA expression of the adult hepatic gene PXR ([7]; 24 hr RA-exposure on day 22-23): increases | adult CYP3A4 expression ([7]; 24 hr RA-exposure on day 22-23, day 23): immediate up-regulation | expression of the fetal hepatic gene CYP3A7 ([7]; 24 hr RA-exposure on day 22-23, immediately after the exposure on day 23): strongly decreases | fetal hepatic gene α-Fetoprotein (AFP) expression [7, 10]: stronger down-regulation | mRNA expression of the adult hepatic gene CAR [7, 10]: higher increase
